Calls of active or inactive are those of the source. No cut-off for these calls is given here.

One may read the EC50 as the midpoint of the concentration-response curve. One may read the Ki as a measure of affinity in units of concentration, obtained from inhibition or displacement. A lower Ki goes with a stronger hold on the target.

Experiment [1] has as its system Mesenchymal stem cells. The experiment in a line: Induction of adiponectin secretion in human BMMSC cells at 10 uM in presence of IDX induction medium by ELISA assay. It is filed as functional, cell-based. (ELISA stands for enzyme-linked immunosorbent assay.)
For experiment [2], the target named is T1, Peroxisome proliferator-activated receptor alpha (Homo sapiens) (UniProt Q07869).
T1 sequence (whole entry): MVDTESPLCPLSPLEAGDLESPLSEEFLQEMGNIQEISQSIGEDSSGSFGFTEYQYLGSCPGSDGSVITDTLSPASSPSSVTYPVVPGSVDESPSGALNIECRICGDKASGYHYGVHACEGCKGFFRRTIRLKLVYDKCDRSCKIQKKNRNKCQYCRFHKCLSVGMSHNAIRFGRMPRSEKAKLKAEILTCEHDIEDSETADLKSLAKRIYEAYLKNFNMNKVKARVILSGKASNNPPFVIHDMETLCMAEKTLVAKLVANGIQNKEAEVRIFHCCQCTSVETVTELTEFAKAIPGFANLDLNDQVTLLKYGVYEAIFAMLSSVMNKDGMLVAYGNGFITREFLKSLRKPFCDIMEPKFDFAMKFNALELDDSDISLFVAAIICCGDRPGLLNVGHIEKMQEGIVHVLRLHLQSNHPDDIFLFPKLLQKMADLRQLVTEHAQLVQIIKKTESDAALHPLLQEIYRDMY
The experiment in a line: Binding affinity to PPARalpha (unknown origin) upto 10 uM by TR-FRET-based competitive binding assay. (In general: In TR-FRET formats the signal depends on donor and acceptor labels being close together.)

Experiment [3] has as its target T2, Peroxisome proliferator-activated receptor delta (Homo sapiens) (UniProt Q03181).
T2 sequence (whole entry): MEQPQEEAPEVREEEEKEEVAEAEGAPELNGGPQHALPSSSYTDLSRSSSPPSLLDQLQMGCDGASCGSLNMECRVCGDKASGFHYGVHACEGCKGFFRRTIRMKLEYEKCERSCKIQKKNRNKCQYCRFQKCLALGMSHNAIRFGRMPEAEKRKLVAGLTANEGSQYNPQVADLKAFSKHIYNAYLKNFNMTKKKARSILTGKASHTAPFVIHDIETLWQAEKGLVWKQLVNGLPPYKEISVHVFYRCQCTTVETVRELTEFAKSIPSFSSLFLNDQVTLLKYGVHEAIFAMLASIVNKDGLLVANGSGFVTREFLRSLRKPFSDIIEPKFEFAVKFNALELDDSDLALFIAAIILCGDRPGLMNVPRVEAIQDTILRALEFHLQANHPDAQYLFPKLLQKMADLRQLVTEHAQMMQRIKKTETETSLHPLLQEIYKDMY
The experiment in a line: Binding affinity to PPARdelta (unknown origin) upto 10 uM by TR-FRET-based competitive binding assay.

A short description of experiment [4]: Induction of adiponectin secretion in human BMMSC cells in presence of IDX induction medium by ELISA assay. It is filed as functional, cell-based. The note with it: Mesenchymal stem cells.
A short description of experiment [5]: Induction of adiponectin secretion in human BMMSC cells assessed as fold increase in adiponectin level at 10 uM in presence of IDX induction medium by ELISA assay. It is filed as functional, Mesenchymal stem cells.
The test system of experiment [6] is Mesenchymal stem cells. The experiment in a line: Upregulation of ADIPOQ mRNA expression in human BMMSC cells at 10 uM in presence of IDX induction medium by qRT-PCR assay. It is filed as functional, cell-based.
Experiment [7] concerns Mesenchymal stem cells. The experiment in a line: Upregulation of FABP4 mRNA expression in human BMMSC cells at 10 uM in presence of IDX induction medium by qRT-PCR assay. It is filed as functional, cell-based.
Experiment [8] has as its system Mesenchymal stem cells. The experiment in a line: Upregulation of PPARgamma mRNA expression in human BMMSC cells at 10 uM in presence of IDX induction medium by qRT-PCR assay. It is filed as functional, cell-based. (In general: In qPCR the cycle at which signal appears reflects the starting amount.)
The test system of experiment [9] is Mesenchymal stem cells. The experiment in a line: Induction of adiponectin secretion in human BMMSC cells assessed as increase in number of lipid droplets at 10 uM in presence of IDX induction medium by Oil Red O staining based inverted microscopic analysis. It is filed as functional, cell-based.
Experiment [10] relates to Mesenchymal stem cells. The experiment in a line: Induction of adiponectin secretion in human BMMSC cells assessed as increase in size of lipid droplets at 10 uM in presence of IDX induction medium by Oil Red O staining based inverted microscopic analysis. It is filed as functional, cell-based.
The target of experiment [11] is T3, Peroxisome proliferator-activated receptor gamma (Homo sapiens, UniProt P37231).
T3 sequence (P37231 whole entry): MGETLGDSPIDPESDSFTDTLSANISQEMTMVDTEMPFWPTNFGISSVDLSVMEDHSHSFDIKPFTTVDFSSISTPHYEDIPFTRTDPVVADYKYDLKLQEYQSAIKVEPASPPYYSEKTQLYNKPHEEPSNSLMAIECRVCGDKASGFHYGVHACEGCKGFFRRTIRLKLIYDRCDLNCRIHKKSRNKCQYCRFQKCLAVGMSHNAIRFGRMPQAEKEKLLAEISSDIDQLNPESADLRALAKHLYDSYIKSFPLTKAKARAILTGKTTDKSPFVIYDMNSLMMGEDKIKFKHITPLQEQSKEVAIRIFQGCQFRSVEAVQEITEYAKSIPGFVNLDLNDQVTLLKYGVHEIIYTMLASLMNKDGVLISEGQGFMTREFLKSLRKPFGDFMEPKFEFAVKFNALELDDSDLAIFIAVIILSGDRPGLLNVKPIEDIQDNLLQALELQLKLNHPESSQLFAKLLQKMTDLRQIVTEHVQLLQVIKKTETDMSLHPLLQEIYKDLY
The experiment in a line: Binding affinity to PPARgamma (unknown origin) by TR-FRET-based competitive binding assay.

Experiment [12] concerns the target T3, Peroxisome proliferator-activated receptor gamma. The experiment in a line: Agonist activity at PPARgamma LBD (unknown origin) assessed as increase in recruitment of coactivator RAP250 to PPARgamma LBD by TR-FRET-based nuclear receptor coactivator assay.
In experiment [13] the test system is Mesenchymal stem cells. The experiment in a line: Potency index, ratio of EC50 for chrysin to EC50 for test compound for induction of adiponectin secretion in human BMMSC cells. It is filed as functional.
In experiment [14] the target is T3, Peroxisome proliferator-activated receptor gamma. The experiment in a line: Partial agonist activity at PPARgamma (unknown origin) by TR-FRET-based competitive binding assay.

Turning to `O=c1cc(-c2ccccc2)oc2cc(O)cc(OCc3ccccc3)c12`, the result in the experiment with Mesenchymal stem cells [1] was Active. Further, the result in experiment [2] and in experiment [3] was inactive.

In the case of `CC(C)=CCOc1cc(OCc2ccccc2)c2c(=O)cc(-c3ccccc3)oc2c1`, the outcome with Mesenchymal stem cells [1], in the experiment on Mesenchymal stem cells [6], in the experiment on Mesenchymal stem cells [7], in the experiment on Mesenchymal stem cells [8], with Mesenchymal stem cells [9] and with Mesenchymal stem cells [10] was Active. Besides, the EC50 in [4] turned out to be 8.5 µM; in experiment [12], 19.6 µM. Also, in experiment [5], the “fold change (FC)” value is 3.8. In experiment [11], this compound gave a Ki of 0.55 µM. For the same compound, the outcome in experiment [2] and in experiment [3] was inactive. Besides, the “Ratio EC50” value in the experiment on Mesenchymal stem cells [13] was determined as 9.

On to `C=CCOc1cc(O)cc2oc(-c3ccccc3)cc(=O)c12`, for which, in the experiment on Mesenchymal stem cells [1], the result was Active. Moreover, the result in experiment [2] and in experiment [3] was inactive.

In the case of `O=c1cc(-c2ccccc2)oc2cc(O)cc(OCc3ccc(F)cc3)c12`, the outcome in the experiment on Mesenchymal stem cells [1] was Active. The outcome in experiment [2] and in experiment [3] was inactive.

Turning to `CC(C)=CCOc1cc(OCc2ccccc2)cc2oc(-c3ccccc3)cc(=O)c12`, in the experiment with Mesenchymal stem cells [1], the result was Active. For the same compound, the “fold change (FC)” value in experiment [5] was found to be 3.3. Further, the outcome in experiment [2] and in experiment [3] was inactive.

For the compound `O=c1cc(-c2ccccc2)oc2cc(O)cc(O)c12` [CHRYSIN], the result in the experiment on Mesenchymal stem cells [1], in the experiment on Mesenchymal stem cells [9] and with Mesenchymal stem cells [10] was Active. In addition, the EC50 in [4] was found to be 77.7 µM. The “fold change (FC)” value in experiment [5] came to 2.3. In addition, the result in experiment [2] and in [3] was inactive.

`COc1cc(OCc2ccccc2)cc2oc(-c3ccccc3)cc(=O)c12`: the result in experiment [2] and in experiment [3] was inactive.

Regarding `O=c1cc(-c2ccccc2)oc2cc(O)cc(OCc3ccc(Cl)cc3)c12`, in the experiment on Mesenchymal stem cells [1], the outcome was Active. The result in experiment [2] and in experiment [3] was inactive.

With `CCc1ccc(CCOc2ccc(CC3SC(=O)NC3=O)cc2)nc1` (centres undefined) [PIOGLITAZONE], in [4], the EC50 amounted to 0.5 µM.

Regarding `CC(C)=CCOc1cc(OCC=C(C)C)c2c(=O)cc(-c3ccccc3)oc2c1`, the result with Mesenchymal stem cells [1], in the experiment with Mesenchymal stem cells [6], with Mesenchymal stem cells [7], with Mesenchymal stem cells [8], in the experiment with Mesenchymal stem cells [9] and with Mesenchymal stem cells [10] was Active. In addition, in experiment [4], the EC50 stood at 4 µM. Besides, in experiment [5], the “fold change (FC)” value is given as 4.8. This compound also came in with a Ki in experiment [11] of 0.37 µM. For the same compound, the result in experiment [2] and in experiment [3] was inactive. The “Ratio EC50” value with Mesenchymal stem cells [13] stood at 9.

As to `O=c1cc(-c2ccccc2)oc2cc(OCc3ccccc3)cc(OCc3ccccc3)c12`, in the experiment with Mesenchymal stem cells [1], the outcome was Active. Moreover, the outcome in [2] and in experiment [3] was inactive.

`O=c1cc(-c2ccccc2)oc2cc(OCc3ccccc3)cc(O)c12`: the outcome in the experiment with Mesenchymal stem cells [1] was Active. The outcome in experiment [2] and in experiment [3] was inactive.

Consider `CCCc1nc2c(C)cc(-c3nc4ccccc4n3C)cc2n1Cc1ccc(-c2ccccc2C(=O)O)cc1`, for which the half-maximal effective concentration (EC50) in experiment [4] was determined as 4.7 µM. Affinity in [14] was put at a Ki of 1.08 µM.

The values above are taken from ChEMBL document CHEMBL5252661 (ACS Med Chem Lett, 2023).
